The results in this text go back to patent US20110280940A1, “Di-Vanilloyl And Tri-Vanilloyl Derivatives For Use In Anti-Cancer Therapy” (priority 2008, published 2011).

Like-named read-outs stand apart in the source and are kept apart here.

The subject of one assay is U373-MG glioma cell line. Briefly: Cellular imaging (quantitative videomicroscopy), global growth ratio, U373. The class given is cell-based. The conditions noted are these: Homo sapiens, 72 h, read-out: Global Grow Ratio Treated/Ct (GGR T/Ct) determined by Video Quantitative microscopy, U373. From the text:
As the MTT test is based on the mitochondria functions, we also investigated the effects of the di- and tri-vanilloyl derivatives according to the invention on cell proliferation, migration and morphology by means of a cellular imaging approach (Debeir et al., Cytometry 60:29-40, 2004; Debeir et al., IEEE Trans Med Imaging 24:697-711, 2005) either in the human U373-MG glioma cell line, which is apoptosis-resistant but autophagy-sensitive (Lefranc F et al., Neurosurgery 2008) and in the human A549 non-small-cell-lung cancer cell line, which is apoptosis-resistant and autophagy-resistant (Mijatovic T et al., Neoplasia 2006, May; 8(5):402-12).
Investigations have also been performed in human normal fibroblasts (WS1 and WI38—see Tables 4 and 5). Cellular imaging relied on the use of computer-assisted phase-contrast microscopy making possible to film the behaviour of living cells in culture dishes for several days.
Cells were seeded in a 25-cm^2 flask at a low density, treated or not with the vanilloyl-esters invention (at a concentration of 50 μM) and filmed thereafter for a period of 72 h. The experiment was conducted in quadruplicates (in duplicates for DLT-95 compounds).
The behaviour of the cells, in terms of morphology, growth and death were thus investigated. The effect on the overall growth was measured by counting the number of cells on the first (0 h) and the last image (72 h) of each film. The global growth ratio (GGR) was then deduced by dividing the number of cells on the last image by the number of cells on the first image. The ratio GGRtreated cells/GGRcontrol cells, was further calculated thereby obtaining a value that describes the effect of compounds of the present invention on the overall cell growth. The methodology is fully described and validated in Debeir et al., 2008, Exp Cell Res 314:2985-2998 and Mathieu et al., 2009, J Cell Mol Med, Feb. 20, 2009.
Illustrative pictures (time=0 h and 72 h) of glioblastoma and normal fibroblast cell line left untreated or treated with poly-vanillic compounds according to the invention (50 μM) are provided in FIG. 1 (U373 glioblastoma) and FIG. 2 (normal fibroblasts). The GGR parameter analyses confirmed the marked impairment of cell growth in both cancer cell lines of the poly-vanillic compounds according to the invention (Table 5).

For the next assay, the target named is T1, Aurora C kinase (Homo sapiens, UniProt Q9UQB9).
T1 construct: made in house
T1 sequence (Q9UQB9 1-309): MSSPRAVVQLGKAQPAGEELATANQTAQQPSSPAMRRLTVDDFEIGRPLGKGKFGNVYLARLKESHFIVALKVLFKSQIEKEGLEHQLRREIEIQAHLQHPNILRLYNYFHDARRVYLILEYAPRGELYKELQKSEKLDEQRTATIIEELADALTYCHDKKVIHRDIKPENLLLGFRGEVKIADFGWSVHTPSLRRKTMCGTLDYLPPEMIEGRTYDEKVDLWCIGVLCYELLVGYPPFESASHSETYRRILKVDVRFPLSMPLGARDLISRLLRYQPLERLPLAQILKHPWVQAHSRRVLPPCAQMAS
Nature of the assay: Radiometric protein kinase assay (33 PanQinase), Aurora C. The class given is biochemical. The conditions noted are these: for IC50: dose-response 0-100 μM, n=3, read-out: IC50: Concentration of drug needed in order to inhibit kinase activity by 50%, AurC; for inhibition at 57 µM: read-out: inhibition of Aurora C activity. As to the method: Note that at a concentration of 20 μM of the DLT compounds, the activity of the three Aurora kinases is reduced by approximately 40-50%, whereas at concentrations of 50 μM, i.e. the concentration used in the anti-proliferation assays of example 2B, the activity of said kinases is reduced by 60-75%.
The kinase inhibition profile of DLT95-Cl at 20 μM was determined using 255 protein kinases. Residual activity values were measured by testing each compound at one concentration in duplicate in each kinase assay. A radiometric protein kinase assay (33 PanQinase®Activity Assay) was used for measuring the kinase activity of 250 protein kinases. All kinase assays were performed in 96-well flashPlates™ from Perkin Elmer (Boston, Mass., USA) in a 50 μl reaction volume. The reaction cocktail was pipetted in 4 steps in the following order: • 10 μl of non-radioactive ATP solution (in H2O) • 25 μl of assay buffer/[γ-33P]-ATP mixture • 5 μl of test sample in 10% DMSO • 10 μl of enzyme/substrate mixture
The assay for all enzymes contained 60 mM HEPES-NaOH, pH 7.5, 3 mM MgCl2, 3 mM MnCl2, 3 μM Na-orthovanadate, 1.2 mM DTT, 50 μg/ml PEG20000, 1 μM ATP/[γ-33P]-ATP (approx. […] per well), protein kinase, and substrate. All PKC assays (except the PKC-mu and the PKC-nu assay) additionally contained 1 mM CaCl2, 4 mM EDTA, 5 μg/ml Phosphatidylserine and 1 μg/ml 1,2-Dioleyl-glycerol. The MYLK2, CAMK1D, CAMK2A, CAMK2B, CAMK2D, CAMK4, CAMKK2, DAPK2 and EEF2K assays additionally contained 1 μg/ml Calmodulin and 0.5 mM CaCl2. The PRKG1 and PRKG2 assays additionally contained 1 μM cGMP.
The protein kinases were expressed either in Sf9 insect cells or in E. coli as recombinant GST-fusion proteins or as His-tagged proteins. All kinases were produced from human cDNAs. Kinases were purified by affinity chromatography using either GSH-agarose (Sigma) or Ni-NTH-agarose (Qiagen). The purity of the protein kinases was examined by SDS-PAGE/coomassie staining. The identity of the protein kinases was checked by mass spectroscopy.
The reaction cocktails were incubated at 30° C. for 60 minutes. The reaction was stopped with 50 μl of 2% (v/v) H3PO4, plates were aspirated and washed two times with 200 μl 0.9% (w/v) NaCl. All assays were performed with a BeckmanCoulter Biomek 2000/SL robotic system.
Incorporation of ^33Pi (counting of “cpm”) was determined with a microplate scintillation counter (Microbeta, Wallac).
For each kinase, the median value of the cpm of three wells with complete reaction cocktails, but without kinase, was defined as “low control” […]. This value reflects unspecific binding of radioactivity to the plate in the absence of protein kinase but in the presence of the substrate. Additionally, for each kinase the median value of the cpm of three other wells with the complete reaction cocktail, but without any compound, was taken as the “high control”, i.e. full activity in the absence of any inhibitor […]. The difference between high and low control of was taken as 100% activity for each kinase. As part of the data evaluation the low control value of each kinase was subtracted from the high control value as well as from their corresponding “compound values”. The residual activity (in %) for each compound well was calculated by using the following formula: Res. Activity (%)=100×[(cpm of compound−low control)/(high control−low control)]

Consider `COc1cc(C(=O)OCCOC(=O)c2ccc(O)c(OC)c2)ccc1O` [DLT1, Ethane-1,2-diyl bis-(4-hydroxy-3-methoxybenzoate)], for which the activity at 50 µM in the assay with U373-MG glioma cell line (50 μM) turned out to be 30%.
Consider `COc1cc(C(=O)OCCCCCCOC(=O)c2ccc(O)c(OC)c2)ccc1O` [DLT11, Hexane-1,6-diyl bis-(4-hydroxy-3-methoxybenzoate)], for which the activity at 50 µM in the assay with U373-MG glioma cell line (50 μM) stood at 20%.
As to `COc1cc(C(=O)OCc2cc(COC(=O)c3ccc(O)c(OC)c3)cc(COC(=O)c3ccc(O)c(OC)c3)c2)ccc1O` [DLT95, [3,5-bis[(4-hydroxy-3-methoxy-benzoyl)oxymethyl]phenyl]methyl 4-hydroxy-3-methoxy-benzoate], the activity at 50 µM in the assay on U373-MG glioma cell line was 10%. For the same compound, the IC50 at Aurora C kinase was determined as 3.3 µM.
As to `O=C(OCc1cc(COC(=O)c2ccc(O)c(Cl)c2)cc(COC(=O)c2ccc(O)c(Cl)c2)c1)c1ccc(O)c(Cl)c1` [DLT95-Cl, [3,5-bis[(4-hydroxy-3-chloro-benzoyl)oxymethyl]phenyl]methyl 4-hydroxy-3-chloro-benzoate], at Aurora C kinase, the IC50 worked out at 1.8 µM and the inhibition at 57 µM was not below 50%.
On to `O=C(OCc1cc(COC(=O)c2ccc(O)c(F)c2)cc(COC(=O)c2ccc(O)c(F)c2)c1)c1ccc(O)c(F)c1` [DLT95-F, [3,5-bis[(4-hydroxy-3-fluoro-benzoyl)oxymethyl]phenyl]methyl 4-hydroxy-3-fluoro-benzoate], for which, on Aurora C kinase, the IC50 was determined as 4.7 µM and the inhibition at 57 µM is not below 50%.
In the case of `COc1cc(C(=O)O)ccc1O` [vanillic acid, reference compound], at Aurora C kinase, the IC50 is more than 100 µM.
